Results: US10501453B2, “Benzothiazole or benzoxazole compounds as SUMO activators” (Icahn School of Medicine at Mount Sinai, priority 2012, dated 2019)

Legend:
[1] = tested on: adult rat ventricular myocytes (ARVMs); assay: Cell shortening/re-lengthening and calcium transient of ARVMs (IonOptix); type: cell-based
Procedure: (§1) Calcium-tolerant adult rat ventricular myocytes (ARVMs) were obtained from hearts of male Sprague-Dawley rats (250 to 300 g). The heart was excised and perfused with a standard enzymatic technique. ARVMs were plated on multi-chambered plates or culture dishes, pre-coated with laminin 2 μg/cm^2, at a density of 10^5 cells/cm^2 in DMEM without L-glutamine supplemented with 10 mmol/l HEPES, 3.7 mg/ml NaHCO3, 1 mg/ml glucose, 0.11 mg/ml sodium pyruvate, 2 mg/ml bovine serum albumin, 2 mmol/1 L-camitine, 5 mmol/1 creatine, 5 mmol/1 taurine, 1% penicillin-streptomycin, and 1% gentamycin. Following isolation, cells were allowed to settle for 1 hour. Cultures were incubated at 37° C., in an atmosphere of 5% CO2-95% air. Fresh medium was added gently as medium was being drawn off until the cultures had been thoroughly washed. Only quiescent, rod-shape cardiac myocytes were selected for IonOptix experiments.
Each compound was added at 10 μM. DMSO was used as a control. After 24 hours at 37° C., SERCA2a SUMOylation and functional analysis were determined.
Mechanical properties of ARVMs were assessed using an IonOptix MyoCam® system (IonOptix, Milton, Mass.). In brief, cells were placed in a Warner chamber mounted on the stage of an inverted microscope (Olympus, IX-70) and superfused (1 ml/min at 30° C.) with a buffer containing 131 mM NaCl, 4 mM KCl, 1 mM CaCh, 1 mM MgCh, 10 mM glucose, and 10 mM HEPES, pH 7.4. ARVMs were field stimulated with suprathreshold voltage and at a frequency of 0.5 Hz. […] SoftEdge software (IonOptix) was used to capture changes in cell length during shortening and re-lengthening.
ARVMs were placed in a chamber on an Olympus IX-70 inverted microscope and imaged through a Fluor 40× oil objective. ARVMs were exposed to light emitted by a 75 W lamp and passed through either a 360 or a 380 nm filter (bandwidths were ±15 nm), while being stimulated to contract at 0.5 Hz. Fluorescence emissions were detected between 480 and 520 nm by a photomultiplier tube after first illuminating cells at 360 nm for 0.5 s then at 380 nm for the duration of the recording protocol (333 Hz sampling rate). The 360 nm excitation scan was repeated at the end of the protocol and qualitative changes in intracellular Ca^2+ concentration ((Ca^2+]i) were inferred from the ratio of the fluorescence intensity at two wavelengths.
(§2) The effects of the Example compound was examined on isolated rat cardiomyocytes shortening and relaxation parameters. […] Effects of Example 1 on mechanical properties of the ARVMs were assessed using a video-based edge detection system (IonOptix). The time constant of the increase of force during the stretch decreased (tau), percentage of peak shortening (PS), maximal rate of relaxation and contraction were analyzed at 24 hrs postincubation of the compounds in culture media (N=10 ARVMs). The mechanical data were analyzed with student's t-test (FIG. 2A, P<0.05 compared to the DMSO treated cells). SERCA2a SUMOylation profiling was analyzed in a same set of ARVMs (FIG. 2B, WCL, whole cell lysates; S-SERCA2a, SUMOylated SERCA2a).

SERCA2a = assay: Endogenous SERCA2a SUMOylation profiling and protein expression in ARVMs; type: cell-based, rat
Procedure: as §1
Equal amounts of protein from either small molecule treated or DMSO treated cells or immunoprecipitates were resolved by 7.5% SDS-PAGE and transferred to nitrocellulose membranes (Bio-Rad, catalog no. 162-0112). The membranes were blocked for 1 hour at room temperature with 5% non-fat milk (Cell Signaling Technology Inc., catalog no. 9999) in TBST (10 mM Tris-HCl, 150 mM NaCl, and 0.05% tween-20, pH 8.0). […]
as §2, with “SERCA2a). […]” for “SERCA2a).”

sham-operated animals = assay: Hemodynamics in sham-operated mice; type: in vivo, mouse
Procedure: Hemodynamics were measured to evaluate the acute effect of Example 1 infusion on the cardiac function of the mouse model of HF. In the first set of experiments, mice were exposed to pressure overload by thoracic aortic constriction (TAC) or sham operation and received either EXAMPLE 1 or vehicle. At two months post-TAC animals developed HF. […] In addition, the positive chronotropic effect of dobutamine was no longer observed in TAC mice (FIG. 9). Following cannulation of the carotid artery and external jugular vein, infusion of EXAMPLE 1 or vehicle was performed as described in Method section. Pressure and conductance catheters were introduced in the LV through the carotid artery. Pressure and volume measurements were made simultaneously and pressure volume curves were constructed as the vehicle or EXAMPLE 1 were infused.
Hemodynamic data were obtained in 1 mg of EXAMPLE 1-treated failing hearts at 30 min and 60 min after compound treatment. […] The improvement occurred within 30 minutes after treatment and maintained for 60 minutes after treatment. […] The effects of EXAMPLE 1 on various hemodynamic parameters are shown in FIG. 9b and Table S1. dP/dt max increased with increasing concentration of EXAMPLE 1 while Tau a parameter of relaxation decreased an indication of enhanced relaxation.

[2] = Pharmacokinetic analysis in mice; settings: mouse, in vivo, ip; murine model, 10 mg/kg intraperitoneal dose
Procedure: FIG. 12 depicts the pharmacokinetic analysis of the compound of Example 1 in mice at a 10 mg/kg intraperitoneal dose.

NCI-60 human tumor cell = NCI-60 human tumor cell screen; type: cell-based; settings: NCI-60 set
Procedure: The NCI-60 human tumor cell screen used by the National Cancer Institute's Developmental Therapeutics Program was performed on Example 1. The NCI-60 set includes leukemia, lymphomas, and carcinomas of ovarian, renal, breast, prostate, colon, lung and CNS origin.

- protein expression levels of E1, E2 enzymes, SERCA2a and SUMO-1 (SERCA2a; dose response): not changed
- Cmax [2]: 2240 nM
- half-life [2]: 1.09 h
Compound: COc1ccc(-c2nnc(Nc3nc4c(OC)cccc4s3)o2)cc1 [Example 1, N-(4-methoxybenzo[d]thiazol-2-yl)-5-(4-methoxyphenyl)-1,3,4-oxadiazol-2-amine]
- Tau value (dose response) ([1]; 10 μM): 1.0 ± 0.1 ms
- effects on mechanical properties of ARVMs (inotropic, lusitropic) ([1]; 24 hrs, versus DMSO): positive inotropic and lusitropic effects
- Tau (rate of transient calcium decay) ([1]; isolated adult cardiomyocytes, DMSO 2.4±0.2, n=10): 1.8 ± 0.2 ms
- Peak shortening ([1]; isolated adult cardiomyocytes, DMSO 3.0±0.8, n=10): 12.0±0.8%
- Maximal rate of relaxation ([1]; isolated adult cardiomyocytes, DMSO 54.0±2.4, n=10): 210.7±19.4 μm/sec
- Maximal rate of contraction ([1]; isolated adult cardiomyocytes, DMSO −64.0±7.9, n=10): −185.5±6.5 μm/sec
- levels of SERCA2a SUMOylation with increasing amount of compound (SERCA2a; dose response): increased levels of SERCA2a SUMOylation
- endogenous SERCA2a SUMOylation (SERCA2a; isolated rodent adult cardiomyocytes): significantly increased
- hemodynamic parameters in sham-operated groups (sham-operated animals): No statistically significant changes
- cancer cell growth and proliferation (NCI-60 human tumor cell): did not induce cancer cell growth and proliferation
